Assay results: US8153787B2 (priority 2005, dated 2012)
In brackets after ≈: the same amount, converted by molar mass. Like-named read-outs stand apart in the source and are kept apart here.

Tests used:
[1] = mouse, in vivo
[2] = tested on: Vaccinia virus (Lederle, Lister, W R and Copenhagen); format: cell-based
[3] = tested on: herpes simplex virus type 1 (HSV-1); test: microbe, parasite or virus in culture; format: cell-based; settings: Human alphaherpesvirus 1, HEL, read-out: EC50 HSV-1 (Kos strain)
HSB-2 cells = settings: human
in vitro [4] = settings: mouse
MOLT-3 cells = settings: human
[5] = tested on: Human Cytomegalovirus (HCMV); test: microbe, parasite or virus in culture; format: cell-based
HEL cells = settings: human
[6] = Decomposition in aqueous solution (sym-triazine ring opening); format: physicochemical; settings: in words
From the text: The first step is a reversible opening of the sym-triazine ring to the N-formylguanidine derivative which can close back to the cyclic structure. This step occurs in presence of a trialkylammonium buffer, e.g. triethylammonium hydrogenocarbonate (TEAB), triethylammonium hydroxide or triethylammonium acetate. This hydrolytic reaction is slow and reaches equilibrium within several days. It is accompanied by loss of UV-absorption which allows to determine its course.
Though this reaction is generally controlled by acidobasic catalysis, it could be eventually speeded up (or slowed down) in vivo by the action of enzymes.
The reaction course was monitored by measurement of absorption maximum decrease in UV spectrum at λmax 245 nm. For each measurement 10 μl sample of reaction mixture was diluted with water to overall volume 3 ml and absorbance value at 245 nm determined. Equilibrium was reached when no more decrease of absorbance occurred. The reaction mixture was evaporated to dryness, coevaporated with water (5×3 ml) and then with methanol (2×3 ml). The residue in water (3 ml) was applied onto a column of Dowex 50 (Na^+ form, 20 ml) and the column eluted with water. UV absorbing eluate was evaporated and lyophilized to give 105 mg (92%) of a sodium salt of 3a as a colourless amorphous material.

[7] = tested on: human cervical carcinoma xenografts (HeLa, CaSki cells); test: Human cervical carcinoma xenografts (HeLa, CaSki) in athymic nude mice, FIG. 12; format: in vivo; settings: 5 and 10 mg/mL doses, intratumoral
Experimental: FIGS. 12 A and B show the activity of (S)-HPMP-5-azacytosine compared to (S)-HPMPC against human papillomavirus in human cervical carcinoma xenografts in athymic nude mice. (A) Adult animals were injected subcutaneously with 5×10^6 HeLa cells, a human cervical carcinoma cell line which harbors integrated human papillomavirus […]. Once the tumors were established (approximately after 1 week), the mice were divided in several groups, the tumor size for each mouse was determined, and treatment with placebo (PBS) or the test compounds was started. The test solutions were administered intratumorally at a volume of 50 μl. Mice were treated once a day, 5 times a week for a period of 5 weeks. Every week, the tumor size for each animal was measured with a caliper in two perpendicular dimensions and tumor size was calculated by multiplying the two measured diameters. […] Once the tumors were established (approximately after 1 week), the mice were divided in several groups, the tumor size for each mouse was determined, and treatment with placebo (PBS) or the test compounds was started. […] Every week, the tumor size for each animal was measured with a caliper in two perpendicular dimensions and tumor size was calculated by multiplying the two measured diameters.

[8] = tested on: Varicella-Zoster Virus (VZV); test: microbe, parasite or virus in culture; format: cell-based; settings: for EC50: Human alphaherpesvirus 3, HEL
[9] = tested on: Molluscum contagiosum virus (MCV) clinical isolates; test: microbe, parasite or virus in culture; format: cell-based; settings: Keratinocyte
Cowpox virus (Brighton) = tested on: Cowpox virus (Brighton); set-up: species or system mice; settings: mouse, in vivo, sc
SiHa cells (HPV-16) = test: Human cervical carcinoma (SiHa) xenografts in athymic nude mice; format: in vivo; settings: 5 weeks intratumoral treatment
Experimental: (§1) Adult animals were injected subcutaneously with 5×10^6 SiHa cells, a human cervical carcinoma cell line which harbors integrated human papillomavirus (HPV-16). Once the tumors were established (approximately after 1 week), the mice were divided in several groups, the tumor size for each mouse was determined, and treatment with placebo (PBS) or the test compounds was started. The test solutions were administered intratumorally at a volume of 50 μl. Mice were treated once a day, 5 times a week for a period of 5 weeks. Every week, the tumor size for each animal was measured with a caliper in two perpendicular dimensions and tumor size was calculated by multiplying the two measured diameters.
as §1, with “s.c.” for “subcutaneously”, “intratumorally (i.t.)” for “intratumorally”

pox tail lesions = test: Pox tail lesion model; format: in vivo
in vitro [10] = settings: human
HSV-1 (Kos strain) = test: microbe, parasite or virus in culture; format: cell-based, Herpes simplex virus type 1; settings: Human alphaherpesvirus 1, HEL
Vaccinia virus = test: organism not typed; format: cell-based; settings: for EC50: HEL
[11] = tested on: herpes simplex virus type 2 (HSV-2); test: microbe, parasite or virus in culture; format: cell-based; settings: Human alphaherpesvirus 2, HEL, read-out: EC50 HSV-2 (G strain)

Nc1ncn(C[C@@H](CO)OCP(=O)(O)O)c(=O)n1 [Compound 3, (S)-1-[3-hydroxy-2-(Phosphonomethoxy)propyl]-5-azacytosine]
mean body weights of the mice [1]: normal pattern
activity against Vaccinia virus (Lederle, Lister, W R and Copenhagen) in PHKs [2]: significant activity
EC50 [3]: 0.61 µg/mL (≈ 2.18 µM)
Toxicity MCC (microscopy), HSB-2 cells (HSB-2 cells): 16 µg/mL
CC50 (in vitro [4]): 109 µg/mL (≈ 391 µM)
Toxicity MCC (microscopy), MOLT-3 cells (MOLT-3 cells): 16 µg/mL
activity against CMV (AD-169 and Davis) in HEL cells [5]: significant activity
EC50 ([5]; Human betaherpesvirus 5, AD169, HEL, read-out: EC50 HCMV AD-169 strain (HEL cells)): 0.078 µg/mL (≈ 0.278 µM)
EC50 ([5]; Human betaherpesvirus 5, HEL, read-out: EC50 HCMV Davis strain (HEL cells)): 0.054 µg/mL (≈ 0.193 µM)
Toxicity MCC (microscop) (HEL cells): >100 µg/mL
decomposition in aqueous solution [6]: slow decomposition
growth of tumors, human cervical carcinoma (FIG. 12) [7]: inhibit the growth of tumors
activity against VZV (Oka, YS, YS-R and 07-1) in HEL cells [8]: significant activity
EC50 ([8]; read-out: EC50 VZV 07/1 strain (HEL cells)): 0.019 µg/mL (≈ 0.0678 µM)
EC50 ([8]; read-out: EC50 VZV OKA strain (HEL cells)): 0.027 µg/mL (≈ 0.0964 µM)
EC50 ([8]; read-out: EC50 VZV YS strain (HEL cells)): 0.039 µg/mL (≈ 0.139 µM)
EC50 ([8]; read-out: EC50 VZV YS-R strain (HEL cells)): 0.015 µg/mL (≈ 0.0535 µM)
EC50 ([9]; read-out: EC50 MCV 06/02): 0.4 µg/mL (≈ 1.43 µM)
EC50 ([9]; read-out: EC50 MCV 06/03): 0.23 µg/mL (≈ 0.821 µM)
EC50 ([9]; read-out: EC50 MCV 06/04): 0.4 µg/mL (≈ 1.43 µM)
EC50 ([9]; read-out: EC50 MCV 06/06): 1.26 µg/mL (≈ 4.5 µM)
survival, Cowpox virus (Brighton) mice model (Cowpox virus (Brighton)): 100%
tumor size, SiHa xenografts (SiHa cells (HPV-16)): did not increase
number of lesions on day 7 (pox tail lesions): 0
CC50 (in vitro [10]): > 100 µg/mL
EC50 (HSV-1 (Kos strain); 2 h, read-out: EC50 HSV-1 (Kos strain), Treatment from 2 h till end of experiment): 0.16 µg/mL (≈ 0.571 µM)
EC50 (HSV-1 (Kos strain); read-out: EC50 HSV-1 (Kos strain), Pretreatment (−16 hours)): 0.25 µg/mL (≈ 0.892 µM)
EC50 (HSV-1 (Kos strain); read-out: EC50 HSV-1 (Kos strain), Treatment 2-4 hours): 1 µg/mL (≈ 3.57 µM)
EC50 (HSV-1 (Kos strain); read-out: EC50 HSV-1 (Kos strain), Treatment 2-6 hours): 0.37 µg/mL (≈ 1.32 µM)
EC50 (HSV-1 (Kos strain); read-out: EC50 HSV-1 (Kos strain), Treatment 2-8 hours): 0.32 µg/mL (≈ 1.14 µM)
activity against Vaccinia virus (Lederle, Lister, W R and Copenhagen) in HEL cells (Vaccinia virus): significant activity
EC50 (Vaccinia virus; read-out: EC50 Vaccinia Virus Lister): 1.69 µg/mL (≈ 6.03 µM)
EC50 (Vaccinia virus; Orthopoxvirus vaccinia, read-out: EC50 Vaccinia Virus Copenhagen): 2.26 µg/mL (≈ 8.07 µM)
EC50 (Vaccinia virus; Orthopoxvirus vaccinia, read-out: EC50 Vaccinia Virus Lederle): 1.7 µg/mL (≈ 6.07 µM)
EC50 (Vaccinia virus; Orthopoxvirus vaccinia, read-out: EC50 Vaccinia Virus WR): 2.45 µg/mL (≈ 8.74 µM)
EC50 [11]: 0.54 µg/mL (≈ 1.93 µM)
